For 14 compounds, IC50 and Kd results are on record in ChEMBL document CHEMBL5247649, “Comparative Efficacy and Selectivity of Pharmacological Inhibitors of DYRK and CLK Protein Kinases” (J Med Chem, 2023).

Data set [1] addresses Cyclin-dependent kinase 5/CDK5 activator 1 (Homo sapiens, UniProt Q00535). The data set can be described thus: biochemical. The data set is classed as cell-based, Sf9.
For data set [2], the target named is T1, Glycogen synthase kinase-3 beta (Homo sapiens, UniProt P49841). The data set can be described thus: biochemical. Format: cell-based, Sf9.
In data set [3] the target is Dual specificity protein kinase CLK4 (Homo sapiens, UniProt Q9HAZ1). The data set can be described thus: biochemical.
Data set [4] concerns the target T2, Dual specificity tyrosine-phosphorylation-regulated kinase 2 (Homo sapiens, UniProt Q92630).
T2 sequence (Q92630 whole entry): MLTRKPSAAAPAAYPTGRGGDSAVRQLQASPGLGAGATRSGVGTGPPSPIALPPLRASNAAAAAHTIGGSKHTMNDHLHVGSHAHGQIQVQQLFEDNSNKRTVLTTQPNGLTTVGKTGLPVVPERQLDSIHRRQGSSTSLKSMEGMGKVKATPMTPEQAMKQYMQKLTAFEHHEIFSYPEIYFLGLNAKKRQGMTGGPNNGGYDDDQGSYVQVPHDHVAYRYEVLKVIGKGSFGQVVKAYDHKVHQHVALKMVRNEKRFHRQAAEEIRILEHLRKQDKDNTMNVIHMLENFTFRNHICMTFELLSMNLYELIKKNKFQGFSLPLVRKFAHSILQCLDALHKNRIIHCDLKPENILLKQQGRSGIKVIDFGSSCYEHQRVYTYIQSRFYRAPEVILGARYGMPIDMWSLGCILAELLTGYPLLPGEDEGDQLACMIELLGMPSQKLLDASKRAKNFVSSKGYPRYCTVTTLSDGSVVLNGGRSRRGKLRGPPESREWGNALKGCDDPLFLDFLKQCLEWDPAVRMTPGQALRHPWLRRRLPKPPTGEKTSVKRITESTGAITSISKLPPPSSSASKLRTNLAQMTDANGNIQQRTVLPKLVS
The data set can be described thus: biochemical. The data set is classed as cell-based, Sf9.

For data set [5], the target named is T3, Dual specificity tyrosine-phosphorylation-regulated kinase 3 (Homo sapiens, UniProt O43781).
T3 sequence (O43781 whole entry): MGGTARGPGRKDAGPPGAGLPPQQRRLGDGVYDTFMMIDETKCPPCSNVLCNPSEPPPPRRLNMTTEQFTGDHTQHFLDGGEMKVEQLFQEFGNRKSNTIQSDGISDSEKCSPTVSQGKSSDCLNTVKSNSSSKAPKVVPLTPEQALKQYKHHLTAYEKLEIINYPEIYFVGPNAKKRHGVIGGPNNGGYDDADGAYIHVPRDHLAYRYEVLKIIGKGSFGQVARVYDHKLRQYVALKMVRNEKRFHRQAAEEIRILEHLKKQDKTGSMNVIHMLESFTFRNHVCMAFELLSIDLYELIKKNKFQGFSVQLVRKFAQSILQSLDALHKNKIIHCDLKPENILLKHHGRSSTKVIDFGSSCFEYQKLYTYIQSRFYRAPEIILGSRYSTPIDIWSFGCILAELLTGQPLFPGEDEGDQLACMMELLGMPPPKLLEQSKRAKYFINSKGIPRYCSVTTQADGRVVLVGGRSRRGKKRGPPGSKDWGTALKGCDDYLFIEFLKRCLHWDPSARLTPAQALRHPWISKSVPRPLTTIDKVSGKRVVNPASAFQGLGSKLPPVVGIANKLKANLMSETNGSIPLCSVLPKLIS
The data set can be described thus: biochemical. The data set is classed as cell-based, Sf9.

The target in data set [6] is Casein kinase I isoform epsilon (Homo sapiens, UniProt P49674). The data set can be described thus: biochemical. Format: cell-based, Sf9.
Data set [7] concerns the target T4, Dual specificity tyrosine-phosphorylation-regulated kinase 4 (Homo sapiens, UniProt Q9NR20).
T4 sequence (Q9NR20 whole entry): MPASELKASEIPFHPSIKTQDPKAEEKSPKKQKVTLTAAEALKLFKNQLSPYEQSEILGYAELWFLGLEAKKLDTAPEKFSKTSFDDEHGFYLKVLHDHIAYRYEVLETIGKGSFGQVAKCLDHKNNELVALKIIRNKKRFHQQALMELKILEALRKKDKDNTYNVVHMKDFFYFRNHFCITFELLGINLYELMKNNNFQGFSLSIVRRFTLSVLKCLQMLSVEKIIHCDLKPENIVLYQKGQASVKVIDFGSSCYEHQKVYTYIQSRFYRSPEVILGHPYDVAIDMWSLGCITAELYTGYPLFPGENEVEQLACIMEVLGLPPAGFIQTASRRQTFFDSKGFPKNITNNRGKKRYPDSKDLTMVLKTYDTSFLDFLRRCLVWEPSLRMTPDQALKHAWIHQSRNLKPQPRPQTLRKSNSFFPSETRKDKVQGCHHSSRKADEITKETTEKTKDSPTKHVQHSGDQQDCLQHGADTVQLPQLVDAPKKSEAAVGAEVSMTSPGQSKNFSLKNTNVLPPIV
The data set can be described thus: biochemical. The data set is classed as cell-based, Sf9.

The nature of the next data set: in vitro. Particulars: mouse, ht-22.
Data set [8] has as its target T1, Glycogen synthase kinase-3 beta.
The target of data set [9] is Dual specificity protein kinase CLK3 (Homo sapiens, UniProt P49761). The data set can be described thus: biochemical. The data set is classed as cell-based, Sf9.
The target of data set [10] is Dual specificity protein kinase CLK2 (Homo sapiens, UniProt P49760). The data set can be described thus: biochemical.
Data set [11] deals with T5, Dual specificity protein kinase CLK1 (Homo sapiens, UniProt P49759). The data set can be described thus: biochemical. Format: cell-based, Sf9. Particulars: read-out: IC50.
Data set [12] addresses T5, Dual specificity protein kinase CLK1.
Data set [13] has the same target. The data set can be described thus: biochemical. The data set is classed as cell-based, Sf9.

pIC50, pKd: −log10 of the molar value.

Chain of Casein kinase I isoform epsilon (P49674 whole entry, canonical isoform): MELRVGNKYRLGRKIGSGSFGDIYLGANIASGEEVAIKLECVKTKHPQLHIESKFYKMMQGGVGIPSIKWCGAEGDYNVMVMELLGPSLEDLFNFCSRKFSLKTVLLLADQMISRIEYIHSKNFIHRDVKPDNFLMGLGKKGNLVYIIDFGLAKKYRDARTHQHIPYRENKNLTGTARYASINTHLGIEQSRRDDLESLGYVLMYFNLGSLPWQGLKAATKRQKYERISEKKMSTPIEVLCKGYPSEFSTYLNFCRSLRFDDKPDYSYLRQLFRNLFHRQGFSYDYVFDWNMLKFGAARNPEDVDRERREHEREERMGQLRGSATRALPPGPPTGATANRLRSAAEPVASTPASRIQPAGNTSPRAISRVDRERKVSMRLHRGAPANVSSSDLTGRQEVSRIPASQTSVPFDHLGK
Chain of Dual specificity protein kinase CLK2 (P49760 whole entry): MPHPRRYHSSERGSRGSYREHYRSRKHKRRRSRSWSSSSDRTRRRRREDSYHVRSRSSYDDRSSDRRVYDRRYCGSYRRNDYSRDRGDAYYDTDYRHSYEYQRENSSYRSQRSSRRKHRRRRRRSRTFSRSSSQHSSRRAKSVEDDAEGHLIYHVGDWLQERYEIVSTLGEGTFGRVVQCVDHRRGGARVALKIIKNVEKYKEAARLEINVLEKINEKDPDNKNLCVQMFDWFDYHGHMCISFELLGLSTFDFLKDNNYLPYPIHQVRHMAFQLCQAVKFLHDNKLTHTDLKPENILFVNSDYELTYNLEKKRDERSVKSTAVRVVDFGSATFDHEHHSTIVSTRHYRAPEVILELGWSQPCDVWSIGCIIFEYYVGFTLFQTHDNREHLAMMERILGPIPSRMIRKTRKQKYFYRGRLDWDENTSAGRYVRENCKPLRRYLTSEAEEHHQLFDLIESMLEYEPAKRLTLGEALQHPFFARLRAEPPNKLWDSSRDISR
Chain of Dual specificity protein kinase CLK3 (P49761 whole entry): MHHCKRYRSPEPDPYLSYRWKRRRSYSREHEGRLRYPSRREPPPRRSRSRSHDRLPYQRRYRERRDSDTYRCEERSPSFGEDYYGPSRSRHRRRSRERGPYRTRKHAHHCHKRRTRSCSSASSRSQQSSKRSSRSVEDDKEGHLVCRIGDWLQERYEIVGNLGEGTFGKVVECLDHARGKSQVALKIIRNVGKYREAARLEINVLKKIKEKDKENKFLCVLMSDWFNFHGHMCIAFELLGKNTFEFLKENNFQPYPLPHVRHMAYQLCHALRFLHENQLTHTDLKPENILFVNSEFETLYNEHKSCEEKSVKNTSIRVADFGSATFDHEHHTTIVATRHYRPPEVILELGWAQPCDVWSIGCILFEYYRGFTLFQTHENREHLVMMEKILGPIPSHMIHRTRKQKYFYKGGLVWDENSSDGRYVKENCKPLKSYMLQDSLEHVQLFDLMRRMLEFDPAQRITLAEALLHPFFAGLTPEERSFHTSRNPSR
Chain of Cyclin-dependent kinase 5/CDK5 activator 1 (Q00535 whole entry): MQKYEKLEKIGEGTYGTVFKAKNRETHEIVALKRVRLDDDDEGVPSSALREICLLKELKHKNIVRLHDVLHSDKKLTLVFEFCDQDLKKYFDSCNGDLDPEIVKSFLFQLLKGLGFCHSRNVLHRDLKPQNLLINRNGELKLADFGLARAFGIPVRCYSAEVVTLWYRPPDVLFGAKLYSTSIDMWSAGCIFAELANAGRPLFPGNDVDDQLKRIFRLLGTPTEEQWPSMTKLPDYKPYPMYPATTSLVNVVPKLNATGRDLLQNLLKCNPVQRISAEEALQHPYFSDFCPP
Chain of Cyclin-dependent kinase 5/CDK5 activator 1 (Q15078 whole entry, further chain): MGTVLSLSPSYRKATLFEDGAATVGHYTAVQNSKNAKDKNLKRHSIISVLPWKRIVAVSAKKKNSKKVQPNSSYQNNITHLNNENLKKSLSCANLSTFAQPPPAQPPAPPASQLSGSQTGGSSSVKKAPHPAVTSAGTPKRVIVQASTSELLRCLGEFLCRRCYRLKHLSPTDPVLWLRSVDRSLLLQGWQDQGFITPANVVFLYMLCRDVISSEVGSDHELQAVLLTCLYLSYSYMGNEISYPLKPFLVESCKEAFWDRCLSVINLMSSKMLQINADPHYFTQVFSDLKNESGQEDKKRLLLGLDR
T5 sequence (P49759 whole entry): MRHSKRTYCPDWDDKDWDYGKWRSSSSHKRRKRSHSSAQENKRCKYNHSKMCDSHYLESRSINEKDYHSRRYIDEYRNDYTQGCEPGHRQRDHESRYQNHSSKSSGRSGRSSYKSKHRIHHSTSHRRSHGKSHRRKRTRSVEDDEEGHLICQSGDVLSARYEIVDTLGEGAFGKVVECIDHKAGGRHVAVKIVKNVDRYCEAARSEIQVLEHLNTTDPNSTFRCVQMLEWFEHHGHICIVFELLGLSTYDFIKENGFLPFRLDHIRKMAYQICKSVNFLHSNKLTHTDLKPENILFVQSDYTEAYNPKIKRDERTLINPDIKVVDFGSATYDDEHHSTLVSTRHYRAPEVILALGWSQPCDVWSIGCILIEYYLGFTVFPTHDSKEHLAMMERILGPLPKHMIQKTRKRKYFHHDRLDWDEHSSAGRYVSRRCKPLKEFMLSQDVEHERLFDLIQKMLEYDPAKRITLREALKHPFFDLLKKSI
Chain of Dual specificity protein kinase CLK4 (Q9HAZ1 whole entry): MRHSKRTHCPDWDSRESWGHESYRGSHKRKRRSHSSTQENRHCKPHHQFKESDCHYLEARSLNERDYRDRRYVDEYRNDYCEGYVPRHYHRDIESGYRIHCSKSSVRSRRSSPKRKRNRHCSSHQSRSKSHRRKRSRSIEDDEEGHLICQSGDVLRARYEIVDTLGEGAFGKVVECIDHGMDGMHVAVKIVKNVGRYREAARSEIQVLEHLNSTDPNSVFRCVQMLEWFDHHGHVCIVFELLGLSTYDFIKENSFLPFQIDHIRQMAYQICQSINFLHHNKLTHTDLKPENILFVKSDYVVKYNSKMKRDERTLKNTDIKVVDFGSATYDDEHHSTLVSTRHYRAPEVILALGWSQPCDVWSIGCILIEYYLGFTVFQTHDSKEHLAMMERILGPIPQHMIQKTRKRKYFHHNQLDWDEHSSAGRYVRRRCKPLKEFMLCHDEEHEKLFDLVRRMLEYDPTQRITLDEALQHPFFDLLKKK
T1 sequence (P49841 whole entry): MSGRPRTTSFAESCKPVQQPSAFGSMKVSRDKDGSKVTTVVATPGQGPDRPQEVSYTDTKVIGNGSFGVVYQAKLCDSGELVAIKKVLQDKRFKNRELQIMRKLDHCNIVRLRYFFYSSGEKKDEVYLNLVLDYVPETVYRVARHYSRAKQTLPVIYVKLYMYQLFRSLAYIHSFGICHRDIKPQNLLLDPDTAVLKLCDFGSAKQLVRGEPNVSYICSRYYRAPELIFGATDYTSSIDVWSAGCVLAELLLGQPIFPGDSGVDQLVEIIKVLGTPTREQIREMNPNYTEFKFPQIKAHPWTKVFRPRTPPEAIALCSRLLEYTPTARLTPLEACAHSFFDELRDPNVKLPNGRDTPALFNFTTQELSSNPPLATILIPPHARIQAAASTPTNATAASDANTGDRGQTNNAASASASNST

Usually pIC50 stands for the negative decadic logarithm of the IC50, by convention in mol/L. In general, IC50 refers to the concentration that inhibits the measured activity by half. A higher IC50 goes with lower potency. By pKd is commonly meant −log10 of the Kd, conventionally taken in molar units. Lower therefore signals a high Kd. For the compound `CCOC(=O)c1c(/C(C#N)=C\N)c2ccc(Cl)c(Cl)c2n1C`, the pIC50 in data set [1] is under 5.00; in [2], under 5.00; in data set [3], 7.83; in [4] it was under 5.00; in [5] it was under 5.00; in [6] it was under 5.00. The pIC50 in data set [7] was under 5.00. Besides, the half-maximal inhibitory concentration (IC50) at 48 h in the data set “in vitro” was over 100 µM. In data set [8], the pKd is under 5.00.

As to `O=C1NC(Nc2ccccc2)=N/C1=C\c1ccc2c(c1)OCO2`, the pIC50 in [2] was under 5.00; in [3], 7.67; in [9], 5.66; in [6], under 5.00; in [7], 6.09. This compound also returned an IC50 at 48 h in the data set “in vitro” of over 100 µM. Also, the pKd in [8] is 6.25.

Turning to `c1ccc(CNc2nc(Nc3cc(C4CC4)[nH]n3)c3sccc3n2)cc1`, the pIC50 in data set [10] is 7.08; in data set [11], 7.25; in data set [9], 5.72; in data set [4] it was 5.33; in [5], 5.37; in data set [6], 5.08. The pIC50 is under 5.00 in data set [7] and 7.12 in data set [13]. In data set [12], this compound showed a pKd of 7.99. Besides, half-maximal inhibition in the data set “in vitro” (IC50 at 48 h) required 54 µM.

For the compound `Cc1nc2ccc(-c3cc(N)nc(N)c3)nc2n1C(C)C`, the pIC50 was 6.56 in data set [1]; under 5.00 in [2]; 7.44 in data set [10]; 8.02 in data set [3]; 5.92 in [9]; 8.00 in data set [4]. For the same compound, the pIC50 in data set [5] was under 5.00; in data set [6] it was 5.54; in data set [7], 6.77. Also, it took 5.8 µM to reach half-maximal inhibition in the data set “in vitro” (IC50 at 48 h). Moreover, the pKd in data set [8] is 5.02.

Regarding `CC(C)Oc1ccc(F)c(-c2cnc(N)c(C(=O)Nc3cnccc3N3CCC[C@@H](C(=O)O)C3)n2)c1`, the pIC50 in data set [1] was 6.33; in [10], 8.23; in [3], 7.68; in data set [11] it was 7.55; in data set [9] it was 5.61; in data set [4], 5.80. The pIC50 in data set [5] was 5.25; in [6], 6.20; in [7], 5.13; in data set [13] it was 7.86. The compound further gave a negative-log Kd (pKd) in data set [12] of 9.60. Besides, the half-maximal inhibitory concentration (IC50) at 48 h in “in vitro” is 16.3 µM.

As for `Cc1ccc(-n2cc(COc3cccc4cnc(Nc5cccc(Cl)c5)nc34)nn2)c([N+](=O)[O-])c1`, the pIC50 in data set [1], in data set [2], in data set [5], in [6] and in data set [7] was under 5.00 in each case. In “in vitro”, this compound registered an IC50 at 48 h of 100 µM. For the same compound, the pKd in [8] is under 5.00.

Take `O=C1NC(NC23CC4CC(CC(C4)C2)C3)=N/C1=C\c1ccc2ncsc2c1`: the pIC50 in [1] was 6.61; in data set [2], 5.38; in data set [9], 6.09; in [6] it was under 5.00; in data set [7], 6.93. For the same compound, in “in vitro”, the IC50 at 48 h is 6.3 µM. In data set [8], this compound showed a pKd of 5.75.

On to `CN1Cc2nn(C)c(C#N)c2-c2cnc3[nH]cc(c3c2)-c2cn(nc2C(F)(F)F)CCCC1=O`, for which the pIC50 in [1] was under 5.00; in data set [2] it was under 5.00; in data set [10], 5.17; in data set [9], under 5.00; in data set [4], 5.06; in data set [5] it was under 5.00. For the same compound, the pIC50 in [6] and in [7] was under 5.00 each time. The compound further yielded an IC50 at 48 h in the data set “in vitro” of 51.3 µM. In addition, in data set [8], the pKd was 5.14.

In the case of `COc1ccc2nc3ccc(OC)cc3c(SCCCN)c2c1`, the pIC50 was under 5.00 in [1]; under 5.00 in data set [2]; 5.57 in data set [10]; 6.34 in data set [3]; 5.13 in data set [9]; under 5.00 in data set [6]. The pIC50 in data set [7] was 6.23. Besides, in the data set “in vitro”, inhibition was half-maximal at 14.5 µM (IC50 at 48 h). Also, in [8], the pKd is 5.57.

In the case of `O=C(Nc1ccc2[nH]ncc2c1)c1csc(Nc2ccccc2)n1`, the pIC50 is under 5.00 in data set [1]; 7.09 in data set [10]; 6.91 in [3]; 6.30 in data set [11]; under 5.00 in data set [9]; 6.36 in data set [4]. Also, the pIC50 in data set [5] was 5.26; in data set [6], under 5.00; in data set [7] it was under 5.00; in [13], 7.05. This compound also had a pKd in data set [12] of 6.70. In “in vitro”, the IC50 at 48 h was over 100 µM.

Consider `Cn1cc(-c2ccc3cnc(NC(=O)C4CCN(S(C)(=O)=O)CC4)cc3c2)cn1`, for which the pIC50 is 5.75 in data set [1]; 7.05 in [10]; 7.85 in data set [3]; 7.69 in data set [11]; 6.17 in data set [9]; 7.43 in data set [4]. For the same compound, the pIC50 in [5] is 6.68; in data set [6], under 5.00; in [7] it was 6.21; in data set [13], 7.42. Further, in data set [12], the pKd was 9.21. For the same compound, in the data set “in vitro”, inhibition was half-maximal at 5.9 µM (IC50 at 48 h).

`CC(C)CN1CCC(C(=O)Nc2cc3cc(-c4cnn(C)c4)ccc3cn2)CC1`: the pIC50 in data set [1] is 5.99; in data set [10] it was 6.42; in data set [3] it was 7.62; in data set [11], 7.82; in data set [9], 5.67; in [4], 6.67. Further, the pIC50 in data set [5] was 6.17; in [6], under 5.00; in [7], 5.61; in data set [13], 7.08. In data set [12], this compound showed a negative-log Kd (pKd) of 9.01. For the same compound, in the data set “in vitro”, the IC50 at 48 h was 4.9 µM.

With `CCN1CCN(Cc2ccc(Nc3ncc(F)c(-c4cc(F)c5nc(C)n(C(C)C)c5c4)n3)nc2)CC1` [ABEMACICLIB], the pIC50 was 6.73 in data set [10]; 7.05 in [3]; 7.09 in [11]; 5.13 in data set [9]; 7.69 in data set [5]; under 5.00 in data set [6]. Also, the pIC50 in [7] was 5.45; in data set [13], 7.19. The compound also showed a pKd in data set [12] of 9.07. Besides, the IC50 at 48 h in the data set “in vitro” is 12.2 µM.

In the case of `c1cc(OCCN2CCCCC2)cc(-c2n[nH]c3ccc(-c4nc[nH]n4)cc23)c1` [CC-401], the pIC50 was under 5.00 in data set [1]; 6.39 in data set [10]; 6.81 in [3]; 5.54 in data set [11]; under 5.00 in data set [9]; 5.10 in data set [4]. Further, the pIC50 was 5.37 in data set [5], 5.82 in data set [6], under 5.00 in data set [7] and 6.36 in data set [13]. The pKd in data set [12] is 8.22. Moreover, in the data set “in vitro”, 51.7 µM corresponded to half-maximal inhibition (IC50 at 48 h).
